Where two headings read alike, the source gives them in different places.
Tests used:
Format in all cases: cell-based, human
Target C mRNA = experiment: RT-qPCR splicing assay panel, Target C canonical junction (CJ) mRNA; settings: canonical junction (CJ) mRNA, RT-qPCR panel, Table 4A, read-out: Target C, decrease in CJ mRNA levels, IC50
In short: (§1)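 Junction-specific RT-qPCR read the canonical exon-exon junction and the compound-induced alternative-exon junction, normalized to GAPDH, GUSB or PPIA and then to DMSO (2^(-ΔΔCt)). Input was lysate from A673 or K562 cells exposed for 24 h to compound up to 10 uM.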

SMN2 mRNA = experiment: RT-qPCR splicing assay panel, SMN2 canonical junction (CJ) mRNA; settings: canonical junction (CJ) mRNA, RT-qPCR panel, Table 4A, read-out: SMN2, decrease in CJ mRNA levels, IC50
In short: as §1

HTT mRNA = experiment: RT-qPCR splicing assay, HTT canonical (CJ) and alternative (AJ) junction mRNA; settings: for AC50: read-out: HTT AJ (AC50, increase in AJ mRNA)
In short: as §1

MYB mRNA = experiment: RT-qPCR splicing assay, MYB canonical (CJ) and alternative (AJ) junction mRNA; settings: for AC50: read-out: MYB AJ (AC50, increase in AJ mRNA)
In short: as §1

[1] = Homo sapiens, 24 h, Table 3A, A673 or K562 cells, 24 h treatment
[2] = Homo sapiens, 24 h, Table 3A, A673 or K562 cells, 24 h treatment, read-out: HTT CJ (IC50, decrease in CJ mRNA)
[3] = Homo sapiens, canonical junction (CJ) mRNA, RT-qPCR panel, Table 4A, read-out: HTT, decrease in CJ mRNA levels, IC50
[4] = Homo sapiens, 24 h, Table 3A, A673 or K562 cells, 24 h treatment, read-out: MYB CJ (IC50, decrease in CJ mRNA)
[5] = Homo sapiens, canonical junction (CJ) mRNA, RT-qPCR panel, Table 4A, read-out: MYB, decrease in CJ mRNA levels, IC50
[6] = Table 3A, A673 or K562 cells, 24 h treatment

COc1cc(-c2ccc(-c3ccc(N4CCC(NC5CCC5)C4)nn3)c(O)c2)c(F)cn1 (stereo not drawn) [Compound 307]
1000 to 10000 nM: IC50 (SMN2 mRNA; Homo sapiens) | AC50 (HTT mRNA; [1]) | IC50 (HTT mRNA; [2]) | IC50 (HTT mRNA; [3])
> 10000 nM: IC50 (Target C mRNA; Homo sapiens) | AC50 (MYB mRNA; [1]) | IC50 (MYB mRNA; [4]) | IC50 (MYB mRNA; [5])

COc1cc(-c2ccc(-c3ccc(N4CCC(N[C@H]5C[C@@H](O)C5)C4)nn3)c(O)c2)cnn1 (stereo partly drawn) [Compound 403, 5-(6-methoxypyridazin-4-yl)-2-[6-(3-{[(1s,3s)-3-hydroxycyclobutyl]amino}pyrrolidin-1-yl)pyridazin-3-yl]phenol]
< 100 nM: IC50 (SMN2 mRNA; Homo sapiens) | IC50 (HTT mRNA; [2]) | IC50 (HTT mRNA; [3])
1000 to 10000 nM: AC50 (MYB mRNA; [1])
100 to 1000 nM: IC50 (Target C mRNA; Homo sapiens) | AC50 (HTT mRNA; [1]) | IC50 (MYB mRNA; [4]) | IC50 (MYB mRNA; [5])

Cc1ncc(-c2cc(O)c(-c3ccc(N4CCC(NC5CCCC5)C4)nn3)cc2F)s1 (stereo not drawn) [Compound 391]
< 100 nM: IC50 (Target C mRNA; Homo sapiens) | IC50 (SMN2 mRNA; Homo sapiens) | AC50 (HTT mRNA; [1]) | IC50 (HTT mRNA; [2]) | IC50 (HTT mRNA; [3]) | IC50 (MYB mRNA; [4]) | IC50 (MYB mRNA; [5])
100 to 1000 nM: AC50 (MYB mRNA; [1])

Oc1cc(-c2cn[nH]c2)ccc1-c1ccc(N2CCC(NC3(C(F)(F)F)CC3)C2)nn1 (stereo not drawn) [Compound 110, 5-(1H-pyrazol-4-yl)-2-[6-(3-{[1-(trifluoromethyl)cyclopropyl]amino}pyrrolidin-1-yl)pyridazin-3-yl]phenol]
> 10000 nM: IC50 (Target C mRNA; Homo sapiens) | IC50 (SMN2 mRNA; Homo sapiens) | AC50 (HTT mRNA; [1]) | IC50 (HTT mRNA; [2]) | IC50 (HTT mRNA; [3]) | AC50 (MYB mRNA; [1]) | IC50 (MYB mRNA; [4]) | IC50 (MYB mRNA; [5])

COc1cc(-c2ccc(-c3ccc(N4CCC(NC5CC(C)(C)C5)C4)nn3)c(O)c2)cnn1 (stereo not drawn) [Compound 352, 2-(6-{3-[(3,3-dimethylcyclobutyl)amino]pyrrolidin-1-yl}pyridazin-3-yl)-5-(6-methoxypyridazin-4-yl)phenol]
100 to 1000 nM: IC50 (Target C mRNA; Homo sapiens) | IC50 (SMN2 mRNA; Homo sapiens) | AC50 (HTT mRNA; [1]) | IC50 (HTT mRNA; [2]) | IC50 (HTT mRNA; [3]) | IC50 (MYB mRNA; [4]) | IC50 (MYB mRNA; [5])
1000 to 10000 nM: AC50 (MYB mRNA; [1])

CN([C@@H]1CCN(c2ccc(-c3ccc(-c4cn[nH]c4)cc3O)nn2)C1)C(C)(C)C [Compound 446]
< 100 nM: IC50 (Target C mRNA) | IC50 (SMN2 mRNA) | AC50 (HTT mRNA; [6]) | IC50 (HTT mRNA; Table 3A, A673 or K562 cells, 24 h treatment, read-out: HTT CJ (IC50, decrease in CJ mRNA)) | IC50 (HTT mRNA; canonical junction (CJ) mRNA, RT-qPCR panel, Table 4A, read-out: HTT, decrease in CJ mRNA levels, IC50) | AC50 (MYB mRNA; [6]) | IC50 (MYB mRNA; Table 3A, A673 or K562 cells, 24 h treatment, read-out: MYB CJ (IC50, decrease in CJ mRNA)) | IC50 (MYB mRNA; canonical junction (CJ) mRNA, RT-qPCR panel, Table 4A, read-out: MYB, decrease in CJ mRNA levels, IC50)

Cc1ncc(-c2cc(O)c(-c3ccc(N4CC[C@@H](N[C@H](C)C5CC5)C4)nn3)cc2F)s1 [Compound 418]
< 100 nM: IC50 (Target C mRNA; Homo sapiens) | IC50 (SMN2 mRNA; Homo sapiens) | AC50 (HTT mRNA; [1]) | IC50 (HTT mRNA; [2]) | IC50 (HTT mRNA; [3]) | AC50 (MYB mRNA; [1]) | IC50 (MYB mRNA; [4]) | IC50 (MYB mRNA; [5])

O=c1cc(-c2cc(O)c(-c3ccc(N4CC[C@@H](NC5CCC5)C4)nn3)cc2F)cc[nH]1 [Compound 220, 4-(4-{6-[(3R)-3-(cyclobutylamino)pyrrolidin-1-yl]pyridazin-3-yl}-2-fluoro-5-hydroxyphenyl)-1H-pyridin-2-one]
100 to 1000 nM: IC50 (Target C mRNA; Homo sapiens) | IC50 (SMN2 mRNA; Homo sapiens) | AC50 (HTT mRNA; [1]) | IC50 (HTT mRNA; [2]) | IC50 (HTT mRNA; [3]) | AC50 (MYB mRNA; [1]) | IC50 (MYB mRNA; [4]) | IC50 (MYB mRNA; [5])

Oc1cc(-c2cn[nH]c2)c(F)cc1-c1ccc(N2CC[C@H](NC3CCC3)C2)nn1 [Compound 113, 2-{6-[(3S)-3-(cyclobutylamino)pyrrolidin-1-yl]pyridazin-3-yl}-4-fluoro-5-(1H-pyrazol-4-yl)phenol]
< 100 nM: IC50 (Target C mRNA; Homo sapiens) | IC50 (SMN2 mRNA; Homo sapiens) | AC50 (HTT mRNA; [1]) | IC50 (HTT mRNA; [2]) | IC50 (HTT mRNA; [3]) | AC50 (MYB mRNA; [1]) | IC50 (MYB mRNA; [4]) | IC50 (MYB mRNA; [5])

From patent publication US20250333397A1 (REMIX THERAPEUTICS INC., priority 2021, published 2025)
